Assay results taken from the kinase profiling compilation of Christmann-Franck et al. (2016).

Assays:
Assay in all cases: radiometric filter-binding kinase assay, Kinase HotSpot
Settings in all cases: compound 0.5 µM; ATP 10 µM
STK17A (human) = STK17A (human) (UniProt Q9UEE5)
PAK4 (human) = PAK4 (human) (UniProt O96013)
STK33 (human) = STK33 (human) (UniProt Q9BYT3)
JAK2 JH1 JH2 (human) = JAK2 JH1 JH2 (human) (UniProt O60674)
PKN1 (human) = PKN1 (human) (UniProt Q16512)
MAPK8 (human) = MAPK8 (human) (UniProt P45983)
CSNK1A1 (human) = CSNK1A1 (human) (UniProt P48729)
GRK5 (human) = GRK5 (human) (UniProt P34947)
CSNK1E (human) = CSNK1E (human) (UniProt P49674)
ABL1 (human) = ABL1 (human) (UniProt P00519)
IKBKE (human) = IKBKE (human) (UniProt Q14164)
PRKD3 (human) = PRKD3 (human) (UniProt O94806)
ULK2 (human) = ULK2 (human) (UniProt Q8IYT8)
PRKCD (human) = PRKCD (human) (UniProt Q05655)
DAPK3 (human) = DAPK3 (human) (UniProt O43293)
AKT3 (human) = AKT3 (human) (UniProt Q9Y243)
DYRK1A (human) = DYRK1A (human) (UniProt Q13627)
MET (human) = MET (human) (UniProt P08581)
SGK2 (human) = SGK2 (human) (UniProt Q9HBY8)
PKN2 (human) = PKN2 (human) (UniProt Q16513)
CDK4 CCND3 (human) = CDK4 CCND3 (human) (UniProt P30281+P11802)
SLK (human) = SLK (human) (UniProt Q9H2G2)
MAP3K14 (human) = MAP3K14 (human) (UniProt Q99558)
PRKCE (human) = PRKCE (human) (UniProt Q02156)
PRKX (human) = PRKX (human) (UniProt P51817)
STK11 (human) = STK11 (human) (UniProt Q15831)
RPS6KB1 (human) = RPS6KB1 (human) (UniProt P23443)
HIPK3 (human) = HIPK3 (human) (UniProt Q9H422)
PRKD1 (human) = PRKD1 (human) (UniProt Q15139)
FLT1 (human) = FLT1 (human) (UniProt P17948)
CAMK2D (human) = CAMK2D (human) (UniProt Q13557)
DSTYK (human) = DSTYK (human) (UniProt Q6XUX3)
FER (human) = FER (human) (UniProt P16591)
PHKG1 (human) = PHKG1 (human) (UniProt Q16816)
ACVR1B (human) = ACVR1B (human) (UniProt P36896)
IKBKB (human) = IKBKB (human) (UniProt O14920)
CDK5 CDK5R1 p35 (human) = CDK5 CDK5R1 p35 (human) (UniProt Q00535+Q15078)
PAK7 (human) = PAK7 (human) (UniProt Q9P286)
CDK9 CCNK (human) = CDK9 CCNK (human) (UniProt O75909+P50750)
CSNK2A1 (human) = CSNK2A1 (human) (UniProt P68400)
DCLK2 (human) = DCLK2 (human) (UniProt Q8N568)
CLK2 (human) = CLK2 (human) (UniProt P49760)
Chain of CLK2 (human) (P49760 whole entry, looked up): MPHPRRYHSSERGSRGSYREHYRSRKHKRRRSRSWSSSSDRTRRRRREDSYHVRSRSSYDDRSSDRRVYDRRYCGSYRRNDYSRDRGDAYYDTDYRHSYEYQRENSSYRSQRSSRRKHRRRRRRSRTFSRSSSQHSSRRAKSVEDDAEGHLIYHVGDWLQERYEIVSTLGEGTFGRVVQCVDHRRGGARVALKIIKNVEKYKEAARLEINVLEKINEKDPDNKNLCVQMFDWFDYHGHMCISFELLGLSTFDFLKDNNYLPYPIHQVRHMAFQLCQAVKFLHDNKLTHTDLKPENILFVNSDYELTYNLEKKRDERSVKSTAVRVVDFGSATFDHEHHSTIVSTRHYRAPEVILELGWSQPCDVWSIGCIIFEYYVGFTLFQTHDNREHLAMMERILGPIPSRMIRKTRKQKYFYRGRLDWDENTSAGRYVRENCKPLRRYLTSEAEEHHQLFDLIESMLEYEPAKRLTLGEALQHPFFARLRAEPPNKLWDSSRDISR

Chain of MAPK8 (human) (P45983 whole entry, looked up): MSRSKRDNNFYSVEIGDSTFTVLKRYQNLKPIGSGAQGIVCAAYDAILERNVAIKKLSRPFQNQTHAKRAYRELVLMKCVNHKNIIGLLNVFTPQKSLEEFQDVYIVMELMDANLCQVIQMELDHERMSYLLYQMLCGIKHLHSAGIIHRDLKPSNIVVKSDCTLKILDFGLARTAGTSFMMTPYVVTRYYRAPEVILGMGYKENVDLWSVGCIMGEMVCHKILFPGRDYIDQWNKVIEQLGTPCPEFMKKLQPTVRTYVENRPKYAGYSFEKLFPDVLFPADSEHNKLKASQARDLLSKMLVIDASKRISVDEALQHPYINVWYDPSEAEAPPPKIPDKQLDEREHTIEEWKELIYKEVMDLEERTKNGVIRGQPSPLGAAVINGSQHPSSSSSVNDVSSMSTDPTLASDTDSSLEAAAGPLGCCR
Chain of JAK2 JH1 JH2 (human) (O60674 whole entry, looked up): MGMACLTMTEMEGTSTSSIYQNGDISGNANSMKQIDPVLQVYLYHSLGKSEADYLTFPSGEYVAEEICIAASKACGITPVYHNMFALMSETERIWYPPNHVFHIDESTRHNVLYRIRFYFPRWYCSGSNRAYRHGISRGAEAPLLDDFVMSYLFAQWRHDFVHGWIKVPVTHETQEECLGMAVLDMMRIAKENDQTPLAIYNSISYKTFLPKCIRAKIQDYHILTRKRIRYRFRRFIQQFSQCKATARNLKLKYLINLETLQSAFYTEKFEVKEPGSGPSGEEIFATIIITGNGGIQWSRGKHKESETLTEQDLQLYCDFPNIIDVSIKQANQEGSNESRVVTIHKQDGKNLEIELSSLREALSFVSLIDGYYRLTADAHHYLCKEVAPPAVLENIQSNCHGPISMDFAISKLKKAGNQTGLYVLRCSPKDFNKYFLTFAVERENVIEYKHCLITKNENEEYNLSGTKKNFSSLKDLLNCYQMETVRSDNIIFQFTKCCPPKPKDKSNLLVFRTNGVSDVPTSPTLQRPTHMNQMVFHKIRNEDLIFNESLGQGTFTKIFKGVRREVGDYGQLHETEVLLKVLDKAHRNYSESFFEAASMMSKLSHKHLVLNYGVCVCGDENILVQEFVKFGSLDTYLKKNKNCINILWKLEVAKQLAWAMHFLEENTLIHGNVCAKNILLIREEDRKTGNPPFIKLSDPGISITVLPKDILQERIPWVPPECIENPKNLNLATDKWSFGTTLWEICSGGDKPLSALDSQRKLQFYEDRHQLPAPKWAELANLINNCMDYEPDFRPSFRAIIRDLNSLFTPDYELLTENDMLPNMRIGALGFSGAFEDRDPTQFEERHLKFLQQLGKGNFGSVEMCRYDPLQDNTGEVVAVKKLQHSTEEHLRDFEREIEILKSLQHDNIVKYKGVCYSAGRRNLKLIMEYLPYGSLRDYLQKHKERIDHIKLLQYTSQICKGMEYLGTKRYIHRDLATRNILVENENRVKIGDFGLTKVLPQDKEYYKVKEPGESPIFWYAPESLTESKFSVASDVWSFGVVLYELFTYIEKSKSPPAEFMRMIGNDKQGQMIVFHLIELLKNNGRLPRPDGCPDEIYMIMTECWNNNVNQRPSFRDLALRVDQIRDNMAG
Chain of HIPK3 (human) (Q9H422 whole entry, looked up): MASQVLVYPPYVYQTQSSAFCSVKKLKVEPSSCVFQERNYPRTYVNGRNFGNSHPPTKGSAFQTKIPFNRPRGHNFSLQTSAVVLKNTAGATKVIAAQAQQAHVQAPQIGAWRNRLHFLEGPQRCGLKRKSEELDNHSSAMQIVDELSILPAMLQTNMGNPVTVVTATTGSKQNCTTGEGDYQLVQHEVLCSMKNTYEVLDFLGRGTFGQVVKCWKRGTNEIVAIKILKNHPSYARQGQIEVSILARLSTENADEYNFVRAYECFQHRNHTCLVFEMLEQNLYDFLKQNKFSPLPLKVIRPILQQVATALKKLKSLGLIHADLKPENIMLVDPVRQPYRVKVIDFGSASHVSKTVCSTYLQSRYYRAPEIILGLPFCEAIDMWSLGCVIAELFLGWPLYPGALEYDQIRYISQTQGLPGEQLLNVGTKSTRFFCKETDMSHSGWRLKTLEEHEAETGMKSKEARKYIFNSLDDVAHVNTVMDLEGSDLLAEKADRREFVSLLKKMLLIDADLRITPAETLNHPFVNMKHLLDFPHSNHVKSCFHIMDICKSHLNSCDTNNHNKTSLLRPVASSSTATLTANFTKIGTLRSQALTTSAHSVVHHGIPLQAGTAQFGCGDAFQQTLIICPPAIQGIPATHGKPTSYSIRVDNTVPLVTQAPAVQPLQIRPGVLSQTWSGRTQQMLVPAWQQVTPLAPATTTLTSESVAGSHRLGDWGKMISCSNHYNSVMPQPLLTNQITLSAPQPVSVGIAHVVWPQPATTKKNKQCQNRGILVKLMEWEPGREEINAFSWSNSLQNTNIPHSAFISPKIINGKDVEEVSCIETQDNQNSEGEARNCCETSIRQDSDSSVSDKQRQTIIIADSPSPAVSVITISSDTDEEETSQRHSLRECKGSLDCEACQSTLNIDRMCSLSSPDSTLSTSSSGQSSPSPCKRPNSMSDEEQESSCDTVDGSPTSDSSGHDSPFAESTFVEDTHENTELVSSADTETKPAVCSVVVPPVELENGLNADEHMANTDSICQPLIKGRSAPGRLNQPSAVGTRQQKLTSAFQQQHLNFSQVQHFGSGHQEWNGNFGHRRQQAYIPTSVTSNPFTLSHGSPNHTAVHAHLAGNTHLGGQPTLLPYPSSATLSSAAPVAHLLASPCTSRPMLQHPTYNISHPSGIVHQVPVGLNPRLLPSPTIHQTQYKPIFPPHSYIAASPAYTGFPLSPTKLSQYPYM
Chain of DAPK3 (human) (O43293 whole entry, looked up): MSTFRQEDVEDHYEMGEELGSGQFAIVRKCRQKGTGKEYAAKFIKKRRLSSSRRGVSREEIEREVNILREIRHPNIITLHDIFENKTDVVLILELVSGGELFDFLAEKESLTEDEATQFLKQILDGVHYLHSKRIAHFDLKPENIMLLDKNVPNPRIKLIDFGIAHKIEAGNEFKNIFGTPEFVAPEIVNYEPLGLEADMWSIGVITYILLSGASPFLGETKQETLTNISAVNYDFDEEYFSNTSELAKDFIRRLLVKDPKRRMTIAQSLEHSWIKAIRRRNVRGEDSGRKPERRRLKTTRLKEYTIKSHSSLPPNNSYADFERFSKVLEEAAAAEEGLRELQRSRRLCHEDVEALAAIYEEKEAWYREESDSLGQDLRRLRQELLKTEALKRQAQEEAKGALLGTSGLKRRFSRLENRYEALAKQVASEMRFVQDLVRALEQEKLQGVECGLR
Chain of PAK4 (human) (O96013 whole entry, looked up): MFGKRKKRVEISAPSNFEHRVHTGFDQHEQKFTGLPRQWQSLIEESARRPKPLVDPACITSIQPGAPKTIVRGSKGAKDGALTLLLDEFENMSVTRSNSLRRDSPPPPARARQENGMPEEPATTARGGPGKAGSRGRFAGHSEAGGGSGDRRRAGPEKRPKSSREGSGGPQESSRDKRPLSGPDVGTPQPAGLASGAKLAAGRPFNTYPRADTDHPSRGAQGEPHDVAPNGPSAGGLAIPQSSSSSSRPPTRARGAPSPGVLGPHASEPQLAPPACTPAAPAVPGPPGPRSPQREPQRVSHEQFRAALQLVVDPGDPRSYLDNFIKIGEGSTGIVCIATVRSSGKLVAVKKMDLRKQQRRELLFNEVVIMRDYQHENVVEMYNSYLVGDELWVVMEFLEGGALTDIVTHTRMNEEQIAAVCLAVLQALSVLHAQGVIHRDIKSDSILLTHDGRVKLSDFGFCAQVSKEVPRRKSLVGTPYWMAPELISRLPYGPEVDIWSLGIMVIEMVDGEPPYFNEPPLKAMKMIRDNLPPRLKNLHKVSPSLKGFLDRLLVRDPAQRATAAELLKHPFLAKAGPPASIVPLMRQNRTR
Chain of CSNK1E (human) (P49674 whole entry, looked up): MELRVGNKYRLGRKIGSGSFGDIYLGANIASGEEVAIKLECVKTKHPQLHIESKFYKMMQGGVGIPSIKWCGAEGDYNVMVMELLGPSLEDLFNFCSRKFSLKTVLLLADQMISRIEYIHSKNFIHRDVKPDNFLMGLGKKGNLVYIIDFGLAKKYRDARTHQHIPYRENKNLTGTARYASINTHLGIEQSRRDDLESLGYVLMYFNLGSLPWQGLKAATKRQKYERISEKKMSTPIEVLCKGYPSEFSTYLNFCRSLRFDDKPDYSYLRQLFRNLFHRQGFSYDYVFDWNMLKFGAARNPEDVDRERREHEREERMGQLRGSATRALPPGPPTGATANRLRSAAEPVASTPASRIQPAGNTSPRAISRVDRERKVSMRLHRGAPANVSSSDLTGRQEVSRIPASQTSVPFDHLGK

COc1cc2ncnc(Nc3ccc(OCc4ccccc4)cc3)c2cc1OC
residual activity (STK17A (human)): 99.6%
residual activity (PAK4 (human)): 103%
residual activity (STK33 (human)): 109%
residual activity (JAK2 JH1 JH2 (human)): 94.3%
residual activity (PKN1 (human)): 101%
residual activity (MAPK8 (human)): 102%
residual activity (CSNK1A1 (human)): 105%
residual activity (GRK5 (human)): 105%
residual activity (CSNK1E (human)): 98.4%
residual activity (ABL1 (human)): 98%
residual activity (IKBKE (human)): 99.7%
residual activity (PRKD3 (human)): 95.3%
residual activity (ULK2 (human)): 97%
residual activity (PRKCD (human)): 101%
residual activity (DAPK3 (human)): 99.2%
residual activity (AKT3 (human)): 103%
residual activity (DYRK1A (human)): 105%
residual activity (MET (human)): 98.9%
residual activity (SGK2 (human)): 100%
residual activity (PKN2 (human)): 94.1%
residual activity (CDK4 CCND3 (human)): 102%
residual activity (SLK (human)): 76.4%
residual activity (MAP3K14 (human)): 84.4%
residual activity (PRKCE (human)): 99.4%
residual activity (PRKX (human)): 105%
residual activity (STK11 (human)): 102%
residual activity (RPS6KB1 (human)): 95.1%
residual activity (HIPK3 (human)): 85.3%
residual activity (PRKD1 (human)): 101%
residual activity (FLT1 (human)): 96%
residual activity (CAMK2D (human)): 95.8%
residual activity (DSTYK (human)): 95.9%
residual activity (FER (human)): 90.8%
residual activity (PHKG1 (human)): 100%
residual activity (ACVR1B (human)): 102%
residual activity (IKBKB (human)): 103%
residual activity (CDK5 CDK5R1 p35 (human)): 103%
residual activity (PAK7 (human)): 99.6%
residual activity (CDK9 CCNK (human)): 103%
residual activity (CSNK2A1 (human)): 95.8%
residual activity (DCLK2 (human)): 102%
residual activity (CLK2 (human)): 102%

COc1ccc2c(c1)c(C1=C(c3c[nH]c4ccccc34)C(=O)NC1=O)cn2CCCN(C)C
residual activity (STK17A (human)): 84%
residual activity (PAK4 (human)): 94.8%
residual activity (STK33 (human)): 56.2%
residual activity (JAK2 JH1 JH2 (human)): 97.5%
residual activity (PKN1 (human)): 34.7%
residual activity (MAPK8 (human)): 80%
residual activity (CSNK1A1 (human)): 62.3%
residual activity (GRK5 (human)): 114%
residual activity (CSNK1E (human)): 86.4%
residual activity (ABL1 (human)): 107%
residual activity (IKBKE (human)): 100%
residual activity (PRKD3 (human)): 91.9%
residual activity (ULK2 (human)): 96.1%
residual activity (PRKCD (human)): 1.67%
residual activity (DAPK3 (human)): 75.5%
residual activity (AKT3 (human)): 63.7%
residual activity (DYRK1A (human)): 84.7%
residual activity (MET (human)): 85.6%
residual activity (SGK2 (human)): 92.6%
residual activity (PKN2 (human)): 95%
residual activity (CDK4 CCND3 (human)): 95.5%
residual activity (SLK (human)): 69.4%
residual activity (MAP3K14 (human)): 79.2%
residual activity (PRKCE (human)): 14.6%
residual activity (PRKX (human)): 102%
residual activity (STK11 (human)): 101%
residual activity (RPS6KB1 (human)): 19.7%
residual activity (HIPK3 (human)): 74.1%
residual activity (PRKD1 (human)): 68.8%
residual activity (FLT1 (human)): 22%
residual activity (CAMK2D (human)): 74.8%
residual activity (DSTYK (human)): 82.8%
residual activity (FER (human)): 70.9%
residual activity (PHKG1 (human)): 66.4%
residual activity (ACVR1B (human)): 111%
residual activity (IKBKB (human)): 99.6%
residual activity (CDK5 CDK5R1 p35 (human)): 81.4%
residual activity (PAK7 (human)): 67.6%
residual activity (CDK9 CCNK (human)): 54.6%
residual activity (CSNK2A1 (human)): 95.9%
residual activity (DCLK2 (human)): 84.8%
residual activity (CLK2 (human)): 78%
